# Test results from PubChem BioAssay (NCI).
#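 Grown in 96-well plates, cells were treated for 48 hours with each compound at five concentrations. Insufficient inhibition: endpoint recorded as highest concentration tested. Abbreviation: GI50, concentration required for 50% inhibition of growth. TGI denotes the concentration required for complete inhibition of growth.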
# How the values were obtained:
# Test in all cases: growth of human tumour cells (NCI), 48 h
# [1] = system: OVCAR-8 ovarian
# [2] = system: SK-MEL-2 melanoma
# [3] = system: SR leukemia
# [4] = system: IGROV1 ovarian
# [5] = system: NCI-H226 lung
# [6] = system: SK-MEL-28 melanoma
# [7] = system: 786-0 renal
# [8] = system: LOX IMVI melanoma
# [9] = system: DU-145 prostate
# [10] = system: MDA-MB-231 breast
Structure (SMILES),TGI [1] [µM],TGI [2] [µM],TGI [3] [µM],TGI [4] [µM],TGI [5] [µM],TGI [6] [µM],TGI [7] [µM],TGI [8] [µM],GI50 [1] [µM],GI50 [8] [µM],GI50 [2] [µM],GI50 [3] [µM],GI50 [9] [µM],TGI [9] [µM],GI50 [10] [µM],TGI [10] [µM],GI50 [6] [µM],GI50 [7] [µM],GI50 [4] [µM],GI50 [5] [µM]
COc1ccc(-c2c(N)[n+]([O-])c3ccccc3[n+]2[O-])cc1OC,> 100,> 100,> 100,> 100,> 100,> 100,> 100,,,,,,,,,,,,,
Cc1c2c(cc3c(=O)ccn(CCN(C)C)c13)c(=O)ccn2CCN(C)C,21.8,44.4,37.6,37,31.7,35.5,17.5,25.3,,,,,,,,,,,,
S=c1nc(N2CCCCC2)ss1,> 100,37.7,45.4,58.5,> 100,36.4,48.1,,,,,,,,,,,,,
Cc1ccc(Sc2sc(-c3ccccc3)nc2[P+](c2ccccc2)(c2ccccc2)c2ccccc2)cc1,1.67,0.808,3.77,,,1.88,1.45,0.901,0.305,0.276,0.275,0.368,0.379,1.37,0.251,0.943,0.605,0.381,,
COc1ccc(N(C)c2c3ccccc3nc3[nH]c4ccccc4c23)cc1,7.42,26.1,50,13.5,3.99,21.8,1.9,1.58,0.798,0.55,6.16,0.186,0.675,3.69,0.616,2.05,3.86,0.444,2.19,0.9
COc1ccccc1/C=C/C(=O)/C=C/c1ccccc1OC,8.88,4.95,8.22,3.2,3.18,3.18,3.59,3.01,2.58,1.53,2.29,1.18,1.96,4.15,2.97,8.75,1.67,1.85,1.6,1.71
CCOC(=O)Nc1nc2c(C)cccc2s1,> 100,> 100,> 100,> 100,> 100,> 100,> 100,> 100,52.8,49.7,85.8,73.3,51.1,> 100,36.1,> 100,> 100,> 100,46,> 100
Cc1cc(N(CCCl)CCCl)ccc1/C=N/NC(=O)Cc1cc(=O)oc2cc(O)ccc12,> 100,> 100,> 100,40.7,43.2,41.9,59.7,26.7,,,,,,> 100,,86.8,,,,
COc1ccc2c(c1)/C(=C/c1cc(OC)c(OC)c(OC)c1)C(=O)N2C,> 74.8,7.41,3.28,5.31,> 100,22.5,23.7,11.8,4.21,2.32,3.29,0.634,,,2.81,> 27.1,3.58,3.82,1.9,4.85
NC1CCC(N[C@@H]2C[C@H]2c2ccccc2)CC1 (some centres undefined),> 100,> 100,> 100,> 100,> 100,> 100,> 100,> 100,> 100,69.6,> 100,19.9,> 100,> 100,23,> 100,> 100,> 100,92.5,> 100
NNC(=O)/C(NC(=O)c1ccccc1)=C(\N)c1ccc(Cl)cc1,> 100,> 100,> 100,> 100,> 100,> 100,> 100,> 100,,,,,,,,,,,,
COC(=O)C1C(OCc2ccccc2)C2CCC1(OC)C=C2C (centres undefined),> 100,> 93.7,66.6,> 100,> 100,> 100,> 100,> 100,,,,,,,,,,,,
COc1cc(Nc2nc3ccc(C(F)(F)F)cc3nc2-c2ccccc2)cc(OC)c1OC,> 100,> 100,> 100,> 100,65.6,> 100,> 100,15.5,,,,,,,,,,,,
Cc1ccc2c(c1)CNc1ccc(C)cc1CN2,> 100,> 100,> 100,> 100,> 100,,> 100,> 100,,,,,,,,,,,,
N#CC1CC2(C(=O)C1=O)c1ccccc1-c1ccccc12 (centres undefined),> 100,> 100,> 100,> 100,> 100,> 100,> 100,> 100,,,,,,,,,,,,
CCNCCCn1c2c(c3ccc([N+](=O)[O-])cc3c1=O)C(=O)c1cc(OC)cnc1-2,0.479,1.9,1.27,1.45,,1.56,0.31,0.131,0.0519,0.0265,0.349,,0.0558,1.16,0.326,1.49,0.227,0.0406,0.184,
O=c1c2ccccc2nc(-c2cccc(Cl)c2)n1NCC1(O)OCC(O)C(O)C1O (centres undefined),> 100,> 100,> 100,,> 100,> 100,> 100,> 100,,,,,,,,,,,,
